Molecular target: menin protein (Homo sapiens (Human), UniProt O00255)
Test: biochemical
Format: binding
Conditions: FP competitive binding; menin protein 4 nM, FAM-MM2 probe 2 nM; read-out: Menin Binding Affinity IC50
Experimental: A fluorescence polarization (FP) competitive binding assay was used to determine the binding affinities of representative menin inhibitors. A FAM labeled fluorescent probe was designed and synthesized based on a MLL1 peptide (FAM-MM2). Equilibrium dissociation constant (Kd) value of FAM-MM2 to menin protein was determined from protein saturation experiments by monitoring the total fluorescence polarization of mixtures composed with the fluorescent probe at a fixed concentration and the protein with increasing concentrations up to full saturation. Serial dilutions of the protein were mixed with FAM-MM2 to a final volume of 200 μl in the assay buffer (PBS with 0.02% Bovine γ-Globulin and 4% DMSO. 0.01% Triton X-100 was added right before assays). Final FAM-MM2 concentration was 2 nM. Plates were incubated at room temperature for 30 minutes with gentle shaking to assure equilibrium.
The IC50, see Table 3, and Ki values of representative Compounds of the Disclosure were determined in a competitive binding experiment. Mixtures of 5 μl of the tested compounds in DMSO and 195 μl of preincubated protein/probe complex solution in the assay buffer were added into assay plates which were incubated at room temperature for 30 minutes with gentle shaking. Final concentration of the menin protein was 4 nM, and final probe concentration is 2 nM. […] FP values were measured as described above. IC50 values were determined by nonlinear regression fitting of the competition curves.

menin protein, sequence (O00255 whole entry): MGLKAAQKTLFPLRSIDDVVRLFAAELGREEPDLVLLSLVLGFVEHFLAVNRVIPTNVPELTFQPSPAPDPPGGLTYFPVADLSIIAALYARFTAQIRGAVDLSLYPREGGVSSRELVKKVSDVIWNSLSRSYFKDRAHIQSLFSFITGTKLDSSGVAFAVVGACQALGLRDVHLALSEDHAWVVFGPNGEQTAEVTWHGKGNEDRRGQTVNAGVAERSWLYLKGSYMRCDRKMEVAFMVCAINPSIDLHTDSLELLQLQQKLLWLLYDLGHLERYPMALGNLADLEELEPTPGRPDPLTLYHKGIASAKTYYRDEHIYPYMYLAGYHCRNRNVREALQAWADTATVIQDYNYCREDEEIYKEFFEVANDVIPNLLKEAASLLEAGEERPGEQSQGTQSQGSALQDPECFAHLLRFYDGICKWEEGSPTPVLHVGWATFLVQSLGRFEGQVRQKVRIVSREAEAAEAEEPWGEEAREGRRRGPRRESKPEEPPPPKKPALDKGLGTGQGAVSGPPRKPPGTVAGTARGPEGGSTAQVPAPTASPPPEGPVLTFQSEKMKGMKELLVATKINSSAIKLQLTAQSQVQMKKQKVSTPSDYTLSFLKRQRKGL

Row | SMILES | IC50
1 | CS(=O)(=O)C[C@H]1CCC[C@@H]1C(C#N)(c1ccccc1)C1CCN(CC2CN(c3ccc(S(=O)(=O)c4ccncc4)cc3)C2)CC1 (mixture of isomers) [compound 255, rac-2-((1S,2S)-2-((methylsulfonyl)methyl)cyclopentyl)-2-phenyl-2-(1-((1-(4-(pyridin-4-ylsulfonyl)phenyl)azetidin-3-yl)methyl)piperidin-4-yl)acetonitrile] | 4.7 µM
2 | CS(=O)(=O)C[C@@H]1CCC[C@H]1C(C#N)(c1ccccc1)C1CCN(CC2CN(c3ccc(S(=O)(=O)c4ccncc4)cc3)C2)CC1 (mixture of isomers) [compound 256, rac-2-((1R,2R)-2-((methylsulfonyl)methyl)cyclopentyl)-2-phenyl-2-(1-((1-(4-(pyridin-4-ylsulfonyl)phenyl)azetidin-3-yl)methyl)piperidin-4-yl)acetonitrile] | 3.3 µM
3 | N#CC(c1ccccc1)(C1CCN(CC2CN(c3ccc(S(=O)(=O)c4ccncc4)cc3)C2)CC1)[C@@H]1CCC[C@H]1CO (mixture of isomers) [compound 257, rac-2-((1R,2R)-2-(hydroxymethyl)cyclopentyl)-2-phenyl-2-(1-((1-(4-(pyridin-4-ylsulfonyl)phenyl)azetidin-3-yl)methyl)piperidin-4-yl)acetonitrile] | 4.6 µM
4 | N#CC(c1ccccc1)(C1CCN(CC2CN(c3ccc(S(=O)(=O)c4ccncc4)cc3)C2)CC1)[C@H]1CCC[C@@H]1CO (mixture of isomers) [compound 258, rac-2-((1S,2S)-2-(hydroxymethyl)cyclopentyl)-2-phenyl-2-(1-((1-(4-(pyridin-4-ylsulfonyl)phenyl)azetidin-3-yl)methyl)piperidin-4-yl)acetonitrile] | 0.563 µM
5 | CSC[C@H]1CCC[C@@H]1C(C#N)(c1ccccc1)C1CCN(CC2CN(c3ccc(S(=O)(=O)c4ccncc4)cc3)C2)CC1 (mixture of isomers) [compound 259, rac-2-((1S,2S)-2-((methylthio)methyl)cyclopentyl)-2-phenyl-2-(1-((1-(4-(pyridin-4-ylsulfonyl)phenyl)azetidin-3-yl)methyl)piperidin-4-yl)acetonitrile] | 10.3 µM
6 | CSC[C@@H]1CCC[C@H]1C(C#N)(c1ccccc1)C1CCN(CC2CN(c3ccc(S(=O)(=O)c4ccncc4)cc3)C2)CC1 (mixture of isomers) [compound 260, rac-2-((1R,2R)-2-((methylthio)methyl)cyclopentyl)-2-phenyl-2-(1-((1-(4-(pyridin-4-ylsulfonyl)phenyl)azetidin-3-yl)methyl)piperidin-4-yl)acetonitrile] | 17 µM
7 | CC(=O)OC[C@H]1CCC[C@@H]1C(C#N)(c1ccccc1)C1CCN(CC2CN(c3ccc(S(=O)(=O)C4CC4)cc3)C2)CC1 (mixture of isomers) [compound 261, rac-((1S,2S)-2-(cyano(1-((1-(4-(cyclopropylsulfonyl)phenyl)azetidin-3-yl)methyl)piperidin-4-yl)(phenyl)methyl)cyclopentyl) methyl acetate] | 9.3 µM
8 | CC(=O)OC[C@@H]1CCC[C@H]1C(C#N)(c1ccccc1)C1CCN(CC2CN(c3ccc(S(=O)(=O)C4CC4)cc3)C2)CC1 (mixture of isomers) [compound 262, rac-((1R,2R)-2-(cyano(1-((1-(4-(cyclopropylsulfonyl)phenyl)azetidin-3-yl)methyl)piperidin-4-yl)(phenyl)methyl)cyclopentyl) methyl acetate] | 6.9 µM
9 | CC(=O)N[C@@H]1CCC[C@H]1C(C#N)(c1ccccc1)C1CCN(CC2CN(c3ccc(S(=O)(=O)c4ccncc4)cc3)C2)CC1 (mixture of isomers) [compound 264, rac-N-((1R,2S)-2-(cyano(phenyl)(1-((1-(4-(pyridin-4-ylsulfonyl)phenyl)azetidin-3-yl)methyl)piperidin-4-yl)methyl)cyclopentyl) acetamide] | 0.555 µM
10 | COC[C@H]1CCC[C@@H]1C(C#N)(c1ccccc1)C1CCN(CC2CN(c3ccc(S(=O)(=O)C4CC4)cc3)C2)CC1 (mixture of isomers) [compound 265, rac-2-(1-((1-(4-(cyclopropylsulfonyl)phenyl)azetidin-3-yl)methyl)piperidin-4-yl)-2-((1S,2S)-2-(methoxymethyl)cyclopentyl)-2-phenylacetonitrile] | 4.9 µM
11 | COC[C@@H]1CCC[C@H]1C(C#N)(c1ccccc1)C1CCN(CC2CN(c3ccc(S(=O)(=O)C4CC4)cc3)C2)CC1 (mixture of isomers) [compound 266, rac-2-(1-((1-(4-(cyclopropylsulfonyl)phenyl)azetidin-3-yl)methyl)piperidin-4-yl)-2-((1R,2R)-2-(methoxymethyl)cyclopentyl)-2-phenylacetonitrile] | 4.5 µM
12 | CS(=O)(=O)N[C@H]1CCC[C@@H]1C(C#N)(c1ccccc1)C1CCN(CC2CN(c3ccc(S(=O)(=O)c4ccncc4)cc3)C2)CC1 (mixture of isomers) [compound 267, rac-N-((1S,2R)-2-(cyano(phenyl)(1-((1-(4-(pyridin-4-ylsulfony)phenyl)azetidin-3-yl)methyl)piperidin-4-yl)methyl)cyclopentyl) methanesulfonamide] | 0.437 µM
13 | CS(=O)(=O)N[C@@H]1CCC[C@H]1C(C#N)(c1ccccc1)C1CCN(CC2CN(c3ccc(S(=O)(=O)c4ccncc4)cc3)C2)CC1 (mixture of isomers) [compound 268, rac-N-((1R,2S)-2-(cyano(phenyl)(1-((1-(4-(pyridin-4-ylsulfonyl)phenyl)azetidin-3-yl)methyl)piperidin-4-yl)methyl)cyclopentyl) methanesulfonamide] | 4.7 µM
14 | CNC(=O)N[C@@H]1CCC[C@H]1C(C#N)(c1ccccc1)C1CCN(CC2CN(c3ccc(S(=O)(=O)c4ccncc4)cc3)C2)CC1 (mixture of isomers) [compound 270, rac-1-((1R,2S)-2-(cyano(phenyl)(1-((1-(4-(pyridin-4-ylsulfonyl)phenyl)azetidin-3-yl)methyl)piperidin-4-yl)methyl)cyclopentyl)-3-methylurea] | 0.881 µM
15 | CN([C@H]1CCC[C@@H]1C(C#N)(c1ccccc1)C1CCN(CC2CN(c3ccc(S(=O)(=O)C4CC4)cc3)C2)CC1)S(C)(=O)=O (mixture of isomers) [compound 273, rac-N-((1S,2R)-2-(cyano(1-((1-(4-(cyclopropylsulfonyl)phenyl)azetidin-3-yl)methyl)piperidin-4-yl)(phenyl)methyl)cyclopentyl)-N-methylmethanesulfonamide] | 37.6 µM
16 | CN([C@@H]1CCC[C@H]1C(C#N)(c1ccccc1)C1CCN(CC2CN(c3ccc(S(=O)(=O)C4CC4)cc3)C2)CC1)S(C)(=O)=O (mixture of isomers) [compound 274, rac-N-((1R,2S)-2-(cyano(1-((1-(4-(cyclopropylsulfonyl)phenyl)azetidin-3-yl)methyl)piperidin-4-yl)(phenyl)methyl)cyclopentyl)-N-methanesulfonamide] | 19.2 µM
17 | CN(C)C(=O)N[C@@H]1CCC[C@H]1C(C#N)(c1ccccc1)C1CCN(CC2CN(c3ccc(S(=O)(=O)c4ccncc4)cc3)C2)CC1 (mixture of isomers) [compound 276, rac-3-((1R,2S)-2-(cyano(phenyl)(1-((1-(4-(pyridin-4-ylsulfonyl)phenyl)azetidin-3-yl)methyl)piperidin-4-yl)methyl)cyclopentyl)-1,1-dimethylurea] | 1.2 µM
18 | CN1COCN([C@H]2CCC[C@@H]2C(C#N)(c2ccccc2)C2CCN(CC3CN(c4ccc(S(=O)(=O)c5ccncc5)cc4)C3)CC2)C1=O (mixture of isomers) [compound 279, rac-2-((1R,2S)-2-(5-methyl-4-oxo-1,3,5-oxadiazinan-3-yl)cyclopentyl)-2-phenyl-2-(1-((1-(4-(pyridin-4-ylsulfonyl)phenyl)azetidin-3-yl)methyl)piperidin-4-yl)acetonitrile] | 0.065 µM
19 | CN1COCN([C@@H]2CCC[C@H]2C(C#N)(c2ccccc2)C2CCN(CC3CN(c4ccc(S(=O)(=O)c5ccncc5)cc4)C3)CC2)C1=O (mixture of isomers) [compound 280, rac-2-((1S,2R)-2-(5-methyl-4-oxo-1,3,5-oxadiazinan-3-yl)cyclopentyl)-2-phenyl-2-(1-((1-(4-(pyridin-4-ylsulfonyl)phenyl)azetidin-3-yl)methyl)piperidin-4-yl)acetonitrile] | 1.4 µM
20 | CC(=O)N[C@@H]1CCC[C@H]1C(C#N)(c1ccccc1)C1CCN(CC2CN(c3ccc(S(=O)(=O)C4CC4)cc3)C2)CC1 (mixture of isomers) [compound 282, rac-N-((1R,2S)-2-(cyano(1-((1-(4-(cyclopropylsulfonyl)phenyl)azetidin-3-yl)methyl)piperidin-4-yl)(phenyl)methyl)cyclopentyl) acetamide] | 3.3 µM
21 | CC(=O)N[C@@H]1CCC[C@H]1C1(C2CCN(CC3CN(c4ccc(S(=O)(=O)c5cnn(C)c5)cc4)C3)CC2)CNCc2ccccc21 (mixture of isomers) [compound 287, rac-N-((1R,2S)-2-(4-(1-((1-(4-((1-methyl-1H-pyrazol-4-yl)sulfonyl)phenyl)azetidin-3-yl)methyl)piperidin-4-yl)-1,2,3,4-tetrahydroisoquinolin-4-yl)cyclopentyl)acetamide] | 0.247 µM
22 | CC(=O)O[C@H]1CCC[C@@H]1C(C#N)(c1ccccc1F)C1CCN(CCCOc2ccc(C#N)cc2)CC1 (mixture of isomers) [compound 308, rac-(1S,2R)-2-(cyano(1-(3-(4-cyanophenoxy)propyl)piperidin-4-yl)(2-fluorophenyl)methyl)cyclopentyl acetate] | 0.066 µM
23 | CC(=O)O[C@@H]1CCC[C@H]1C(C#N)(c1ccccc1F)C1CCN(CCCOc2ccc(C#N)cc2)CC1 (mixture of isomers) [compound 309, rac-(1R,2S)-2-(cyano(1-(3-(4-cyanophenoxy)propyl)piperidin-4-yl)(2-fluorophenyl)methyl) cyclopentyl acetate] | 11.4 µM
